Laboratory results: PMC7824383, “Organic Solution Advanced Spray-Dried Microparticulate/Nanoparticulate Dry Powders of Lactomorphin for Respiratory Delivery: Physicochemical Characterization, In Vitro Aerosol Dispersion, and Cellular Studies” (Pharmaceutics, 2020)

Experiment: Residual water content by Karl Fischer titration
Format: physicochemical
Conditions: Karl Fischer coulometric titration, 1–2 mg in anhydrous methanol; mean ± SD, n = 3
Description: Using conditions similar to previously reported, the residual water content of all powders was quantified by Karl Fischer titration (KFT) […] using a TitroLine® 7500 trace titrator (SI Analytics, Mainz, Germany). Around 1–2 mg of sample was dissolved in 0.5 mL AQUA STAR anhydrous methanol. The sample solution was injected into a reaction cell filled with Hydranal®Coulomat AD reagent; then, a simple calculation obtained the sample’s water content. All experiments were done in triplicate (n = 3).

Structure (SMILES): OC[C@H]1O[C@H](O[C@H]2O[C@H](CO)[C@@H](O)[C@H](O)[C@H]2O)[C@H](O)[C@@H](O)[C@@H]1O [Raw Trehalose, D (+)-Trehalose dihydrate]
- Water % (w/w): 8.11 ± 1.96 % (w/w)
